Laboratory results reported in patent US20140045847A1, “CRYSTALLINE FORM OF A SALT OF A MORPHOLINO SULFONYL INDOLE DERIVATIVE AND A PROCESS FOR ITS PREPARATION” (PIRAMAL ENTERPRISES LIMITED, priority 2011, published 2014).
Each block holds one compound with its values, some of them ahead of it.

How the values were obtained:
[1] = system: human tumor cell lines; settings: mesenchymal, epithelial and hematopoietic tumor cell lines; Carboni et al. 2009; cited from earlier work
[2] = system: Pp70S6; assay: IGF-1R autophosphorylation assay (Western blot), Pp70S6; format: cell-based, human; settings: 1 h treatment, IGF-1 50 ng/mL stimulation
Experimental: (§1) Cells were grown and maintained in a medium containing 10% FBS. Cells grown as subconfluent monolayer, were subjected to serum starvation by replacing the respective culture medium with plain medium (containing no serum) and incubated for about 16 h at 37° C. in 5% CO2 incubator. Serum starved cells were treated with compound I at different concentrations for 1 h at 37° C. in 5% CO2 incubator and stimulated with IGF-1 (50 ng/mL) for the last 5 minutes of treatment with Compound I. After stimulation cells were washed twice with cold 1×PBS, pH 7.2 and cell lysates were prepared using CelLytic™ M cell lysis reagent (Sigma) containing protease and phosphatase inhibitors. Estimation of the total protein content in each cell lysate was carried out using Bradford reagent. Equal amount of protein from each lysate was subjected to Sodium Dodecyl Sulphate-Polyacrylamide Gel Electrophoresis (SDS-PAGE) followed by Western blotting protocol using specific antibody to pIGF-1R, IGF-1Rβ, pAkt, Akt, Pp70S6, p70S6, Pp44/42, p44/42 and loading control, β-actin. Imaging was done with BIO-RAD Image-Lab Software. The band density was then estimated using the software Image J. From the band densities of the various proteins at different concentrations of Compound I, the IC50 concentrations for various proteins were calculated, and are enumerated in Table 3.

[3] = Stability of the solid form under stress conditions; format: physicochemical
[4] = molecular target: T1, pIGF-1R (Homo sapiens, UniProt P08069); assay: IGF-1R autophosphorylation assay (Western blot), pIGF-1R; format: cell-based; settings: 1 h treatment, IGF-1 50 ng/mL stimulation
T1 construct: endogenous in cells
Experimental: as §1

[5] = system: pAkt; assay: IGF-1R autophosphorylation assay (Western blot), pAkt; format: cell-based, human; settings: 1 h treatment, IGF-1 50 ng/mL stimulation
Experimental: as §1

[6] = system: HCT116 cells; assay: Anti-proliferative assay (CellTiter-Glo), HCT116; format: cell-based; settings: Homo sapiens, HCT-116; HCT116, 72 h, 100 ng/mL IGF-1 without FCS
Experimental: (§2) The cancer cell lines were seeded in triplicate (at density, from 3000-5000 cells/well depending on cell type) with 10% FCS in 180 μL of culture medium in tissue culture grade 96 well plates and allowed to recover for 24 h in humidified 5% CO2 incubator at 37±1° C. […] Compound I in crystalline form was used at concentration range of 0.1, 1, 3 and 10 μM and the plates were incubated for 72 h in humidified 5% CO2 incubator at 37±1° C. Control wells were treated with vehicle (DMSO). At the end of the incubation periods, the plates were assayed by the CellTiter-Glo® Luminescent Cell Viability assay protocol. Percent cytoxicity was calculated at the various drug concentrations. Graph for cytotoxicity vs. concentration of Compound I was plotted, and the IC50 values were determined
(§3) The CellTiter-Glo® Luminescent Cell Viability Assay is a homogeneous method to determine the number of viable cells in culture based on quantitation of the ATP present, which signals the presence of metabolically active cells. The amount of ATP is directly proportional to the number of cells present in culture
(§4) • 1. […] The luminescence is recorded using the POLARstar optima plate reader […] Values are IC50 in nM for different cell lines are provided for the crystalline form of Compound I in Table 4.

[7] = system: MCF7 cells; assay: Anti-proliferative assay (CellTiter-Glo), MCF7; format: cell-based; settings: Homo sapiens; MCF7, 72 h, 100 ng/mL IGF-1 without FCS
Experimental: as §2, §3, §4

[8] = system: SK-ES cells; assay: Anti-proliferative assay (CellTiter-Glo), SK-ES; format: cell-based; settings: Homo sapiens, 72 h, 100 ng/mL IGF-1 without FCS
Experimental: as §2, §3, §4

[9] = system: A673 cells; assay: Anti-proliferative assay (CellTiter-Glo), A673; format: cell-based; settings: Homo sapiens; A673, 72 h, 100 ng/mL IGF-1 without FCS
Experimental: as §2, §3, §4

[10] = molecular target: T2, intracellular kinase domain of human IGF-1R (GST fusion protein) (Homo sapiens, UniProt P08069); assay: In vitro IGF-1R kinase assay (HTRF); format: biochemical; settings: ATP 20 μM, IGFRK 0.25 nM, read-out: IC50 IGF-1R enzyme
T2 construct: intracellular kinase domain of human IGF-1R and expressed as GST fusion proteins; GST; made in house
Experimental: The in vitro kinase assays using IGF-1R kinase GST fusion proteins were conducted using a homogeneous time-resolved fluorescence (HTRF) format. Kinase reactions were carried out in a 384-well plate format in a final volume of 20 μL. The standard enzyme reaction buffer consisted of 50 mM Tris HCL (pH: 7.4), 1 mM EGTA, 10 mM MgCl2, 2 mM DTT, 0.01% Tween-20, IGF-1R/IR kinase enzyme, poly GT peptide substrate (Perkin Elmer [Ulight Glu-Tyr (4:1)]n) and ATP [concentration equivalent to Kmapp]. […] Europium cryptate—labeled antiphosphotyrosine antibody PY20 (5 μL) was added (final concentration of 2 nM) and the mixture was allowed to equilibrate for 1 hour at 23° C. followed by reading the plate in an Envision plate reader. […] The IC50 values for Compound I in both, the crystalline form and the amorphous form were determined by a four-parameter sigmoidal curve fit (Sigma plot or Graph pad) as represented in Table 2.
IGFRK enzyme used for the assay was intracellular kinase domain of human IGF-1R and expressed as GST fusion proteins using the baculovirus expression system and purified using glutathione—Sepharose column. […]

[11] = system: RD cells; assay: Anti-proliferative assay (CellTiter-Glo), RD; format: cell-based; settings: Homo sapiens, 72 h, 100 ng/mL IGF-1 without FCS
Experimental: as §2, §3, §4

[12] = system: RD-ES cells; assay: Anti-proliferative assay (CellTiter-Glo), RD-ES; format: cell-based; settings: Homo sapiens, 72 h, 100 ng/mL IGF-1 without FCS
Experimental: as §2, §3, §4

[13] = Homo sapiens, A673, 1 h, A673 cells
[14] = MCF7 cells, listed as Crystalline form

T1 sequence (P08069 31-1367): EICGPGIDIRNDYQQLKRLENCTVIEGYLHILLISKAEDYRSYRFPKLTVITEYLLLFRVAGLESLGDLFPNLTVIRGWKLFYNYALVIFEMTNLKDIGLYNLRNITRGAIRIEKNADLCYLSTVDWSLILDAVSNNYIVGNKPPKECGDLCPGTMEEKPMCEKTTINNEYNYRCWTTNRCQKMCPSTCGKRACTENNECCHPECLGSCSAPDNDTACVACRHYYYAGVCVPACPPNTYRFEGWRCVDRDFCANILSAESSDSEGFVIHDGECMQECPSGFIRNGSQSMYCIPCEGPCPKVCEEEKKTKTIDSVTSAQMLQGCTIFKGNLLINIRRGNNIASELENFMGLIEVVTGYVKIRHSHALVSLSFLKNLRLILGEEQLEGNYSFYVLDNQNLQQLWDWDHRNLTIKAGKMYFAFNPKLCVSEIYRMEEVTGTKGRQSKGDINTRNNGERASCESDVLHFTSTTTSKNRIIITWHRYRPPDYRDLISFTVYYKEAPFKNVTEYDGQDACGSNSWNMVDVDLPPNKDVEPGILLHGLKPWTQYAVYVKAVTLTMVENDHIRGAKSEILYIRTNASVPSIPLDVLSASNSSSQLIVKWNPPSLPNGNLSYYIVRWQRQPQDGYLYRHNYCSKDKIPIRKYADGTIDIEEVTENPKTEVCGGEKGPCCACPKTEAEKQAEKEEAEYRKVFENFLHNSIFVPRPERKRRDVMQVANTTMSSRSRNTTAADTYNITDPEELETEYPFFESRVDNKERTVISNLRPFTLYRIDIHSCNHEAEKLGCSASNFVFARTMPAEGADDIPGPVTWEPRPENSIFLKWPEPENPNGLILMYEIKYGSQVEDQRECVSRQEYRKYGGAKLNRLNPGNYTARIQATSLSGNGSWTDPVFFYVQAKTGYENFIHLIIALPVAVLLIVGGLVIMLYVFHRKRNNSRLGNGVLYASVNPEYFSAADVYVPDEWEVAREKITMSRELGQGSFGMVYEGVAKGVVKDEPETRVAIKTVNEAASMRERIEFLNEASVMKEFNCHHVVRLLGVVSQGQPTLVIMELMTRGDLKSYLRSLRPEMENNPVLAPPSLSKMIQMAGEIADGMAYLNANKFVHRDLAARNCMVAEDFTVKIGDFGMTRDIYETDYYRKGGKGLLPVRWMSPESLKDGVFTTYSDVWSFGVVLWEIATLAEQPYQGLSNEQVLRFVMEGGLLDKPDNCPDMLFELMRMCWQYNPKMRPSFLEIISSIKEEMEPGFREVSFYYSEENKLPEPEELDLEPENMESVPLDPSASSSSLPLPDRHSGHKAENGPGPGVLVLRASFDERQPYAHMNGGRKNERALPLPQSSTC
T2 sequence (P08069 999-1274 limits assumed): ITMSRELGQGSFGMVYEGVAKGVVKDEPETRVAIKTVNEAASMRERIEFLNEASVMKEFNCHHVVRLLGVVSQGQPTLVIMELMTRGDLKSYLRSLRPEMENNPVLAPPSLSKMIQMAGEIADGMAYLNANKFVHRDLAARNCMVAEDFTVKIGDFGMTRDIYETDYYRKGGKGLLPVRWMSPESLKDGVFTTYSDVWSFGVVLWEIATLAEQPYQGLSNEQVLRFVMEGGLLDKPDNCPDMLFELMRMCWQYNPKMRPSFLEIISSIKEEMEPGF

Compound: C[C@@]1(C(=O)Nc2ccc(F)nc2)CCCN1c1nc(Nc2cc(C3CC3)n[nH]2)c2cccn2n1 [BMS-754807]
inhibition of growth of human tumor types in vitro [1]: effectively inhibits the growth

IC50 [2, 13]: 450 nM
IC50 ([2]; Homo sapiens, MCF7, 1 h, MCF7 cells): 680 nM
stability under stress conditions ([3]; listed as amorphous form of Compound I): unstable under stress conditions
IC50 ([4]; A673 cells): < 10 nM
IC50 ([4]; Colo205 cells): 400 nM
IC50 ([4]; MCF7 cells): 15 nM
IC50 ([5]; Colo205 cells, listed as Amorphous form): 620 nM
IC50 [5, 13]: 260 nM
IC50 ([5]; MCF7 cells, listed as Amorphous form): 380 nM
Compound: CCOC(=O)N1CCC(Nc2cc(Cl)cc3c(S(=O)(=O)N4CCO[C@H](COc5ccccc5)C4)c(C(N)=O)[nH]c23)CC1 [Compound I (amorphous form), (S)-ethyl 4-(2-carbamoyl-5-chloro-3-(2-(phenoxymethyl)morpholinosulfonyl)-1H-indol-7-ylamino)piperidine-1-carboxylate methane sulfonate]

IC50 [2, 14]: 460 nM
IC50 ([4]; A673 cells): 30 nM
IC50 ([4]; Colo205 cells): 46 nM
IC50 [6]: 900 nM
IC50 ([5]; A673 cells): 220 nM
IC50 ([5]; Colo205 cells, listed as Crystalline form): 23 nM
IC50 [5, 14]: 50 nM
IC50 [7]: 160 nM
IC50 [8]: 450 nM
IC50 [10]: 22 nM
Compound: CCOC(=O)N1CCC(Nc2cc(Cl)cc3c(S(=O)(=O)N4CCO[C@H](COc5ccccc5)C4)c(C(N)=O)[nH]c23)CC1 [Compound I (crystalline form), (S)-ethyl 4-(2-carbamoyl-5-chloro-3-(2-(phenoxymethyl)morpholinosulfonyl)-1H-indol-7-ylamino)piperidine-1-carboxylate methane sulfonate]
stability under stress conditions ([3]; listed as crystalline form of Compound I): stable with reproducible pharmacological activity even under stress conditions
IC50 [9]: 1800 nM
IC50 [11]: 1400 nM
IC50 [12]: 250 nM
